Patent publication US20120270914A1, “SPLIT-LUCIFERASE C-MYC SENSOR AND USES THEREOF” (THE BOARD OF TRUSTEES OF THE LELAND STANFORD JUNIOR …, priority 2011, published 2012)

Experiments:
c-Myc [1] = experiment: Hydrodynamic injection of the c-Myc sensor and BLI in Eμ-tTA/Tet-O-MYC transgenic mice; assay type: in vivo
From the text: To test the in vivo application of the sensor system, SKBR3 cells were first transiently transfected separately with equal DNA molar amounts of the vectors pcDNA3.1(+), GSK 35-433-CFL/NFL-c-Myc or GSK 35-433-CFL/NFL-c-Myc T851 and implanted them subcutaneously in different locations in each nude mouse (n=3; FIG. 7A). hRL was also co-expressed for control of transfection efficiency. […] However, on intraperitoneal injection of the FL substrate D-Luciferin (D-Luc), xenografts carrying pcDNA3.1(+) had very low complemented FL activity, whereas those carrying GSK 35-433-CFL/NFL-c-Myc had 10.6-fold higher activity. Those carrying GSK 35-433-CFL/NFL-c-Myc T851 had 4.7-fold higher activity after normalization to their hRL activity (FIG. 7C). Thus, the complemented FL activity determined by the phosphorylation status of NFL-c-Myc can be imaged and quantified in a mouse xenograft model. The sensor system was also transiently expressed in the liver of two transgenic mice using hydrodynamic injection. These mice carried a liver-specific transgene of c-Myc under control of the Tet system (Shachaf et al. (2007) Blood 110: 2674-2684).
Both mice had doxycycline discontinued, followed by a 29-day course of treatment with AT in one mouse and with PBS in the other mouse. […] This signal reduction was consistent with the reduced endogenous c-Myc phosphorylation and the histological changes in the liver tissue samples (FIG. 7E).
Hydrodynamic Injection: Eμ-tTA/Tet-O-MYC transgenic mice (Shachaf et al. (2007) Blood 110: 2674-2684) (n=2) were removed from doxycycline treatment at 8 wk of age and underwent gavage with AT or PBS as described above. At 29 d after treatment, these two mice underwent imaging studies to characterize the liver phospho c-Myc level after hydrodynamic injection (Frame et al., (2001) Mol. Cell 7: 1321-1327) of the c-Myc sensor. […]

c-Myc [2] = conditions: Shachaf et al. 2007; cited from earlier work
c-Myc [3] = experiment: Drug inhibition assay: BLI of SKBR3 stable cells constitutively expressing the c-Myc sensor (SK ST), normalized to full-length FL cells (SK FST); assay type: cell-based, human; conditions: for reduction in complemented FL activity compared between drugs: SK ST cells normalized to SK FST cells; for complemented FL activity: SK ST cells, after normalization to effect on FL activity of SK FST cells, PD98059 2 h, U0126 1 h, AT 16 h
Protocol: (§1) To test the ability of the sensor to monitor c-Myc phosphorylation levels on drug treatment, the SKBR3 and 293T stable cells (SK ST and 293T ST) were established that constitutively express the sensor. SKBR3 and 293T stable cells were also constructed that constitutively express the full-length FL (SK FST and 293T FST) for the control of direct drug effect on FL activity.
(§2) Luciferase Activity Assay: BLI of luciferase activity in intact cells was performed as described previously (Hann (2006) Semin Cancer Biol 16(4):288-302). In brief, 24 h after transfection, culture medium was replaced with a PBS solution (pH 7.0) of 45 μg/mL D-Luc for FL imaging or of 10 μg/mL of Clz for RL imaging with the IVIS BLI system (Xenogen). Images were acquired at 2-min intervals until the peak signal was reached. The photon output of FL or RL imaging in transiently transfected cells was normalized to co-expressed RL or FL activity, respectively, measured by an in vitro luminometry assay as described previously (Chan et al. (2008) Cancer Res. 68:216-226), then normalized to the total protein in the cell lysates, measured by the BioRad DC protein assay as directed by the manufacturer. In stable cells, the photon output of FL imaging was normalized to the total protein in the cell lysates.
(§3) Drug Inhibition Assay: SKBR3 stable cells constitutively expressing the sensor system (SK ST) or the full-length FL (SK FST) were treated with PD98059 (Cell Signaling) for 2 h, U0126 (Cell Signaling) for 1 h, and purified AT (Sequoia Research Products) for 16 h at the indicated concentrations and imaged with D-Luc in the IVIS 50 BLI system (FIGS. 6A and 6B, and FIGS. 10A-12D). In addition, 293T stable cells constitutively expressing the sensor system (293T ST) or the full-length FL (293T FST) were treated with AT for 16 h at the indicated concentrations (FIGS. 6A and 6B, and FIGS. 13A-13D) and imaged with D-Luc in the IVIS 50 system. The photon output of FL imaging was normalized to the total protein content, and the FL activity of SK ST or 293T ST was normalized to that of SK FST or 293T FST, respectively. SKBR3 and 293T cells were treated as above and lysed for Western blot analysis of phospho c-Myc, c-Myc, and β-actin proteins. The correlation coefficient between the fold change of normalized FL activity and the fold change of normalized phospho c-Myc level (phospho c-Myc/β-actin) was determined based on the R^2 value.

c-Myc [4] = experiment: Drug inhibition assay: BLI of 293T stable cells expressing the c-Myc sensor (293T ST), normalized to 293T FST; assay type: cell-based, human; conditions: 293T ST cells; after normalization to FL activity of 293T FST cells; AT 16 h
Protocol: as §1
as §2, with “lysates. […]” for “lysates.”

c-Myc [5] = experiment: Western blot analysis of endogenous phospho c-Myc in SKBR3 cells; assay type: cell-based, human; conditions: for endogenous c-Myc phosphorylation level: Western blot
Protocol: (§4) FIGS. 26A and 26B illustrate the inhibition of endogenous c-Myc. FIG. 26A: Western blot analysis of SKBR3 cells after NTZ treatment was performed using phospho c-Myc, c-Myc protein, and β-actin antibodies. […] The fold-change of phospho c-Myc level was plotted against the log scale of NTZ concentration.
(§5) Western Blot Analysis: Total cell lysates were collected using 1× cell lysis buffer (Cell Signaling), as directed by the manufacturer. The protein concentration was determined using the BioRad DC protein assay. SDS/PAGE analysis of 50 μg of protein was transferred to an lmmobilon-P membrane (Millipore). Anti-phosphor-c-Myc (Thr58/Ser62) and anti-c-Myc antibody (Cell Signaling) were used to visualize the phospho c-Myc and c-Myc protein, respectively, as directed by the manufacturer. Anti-FLuc-HRP antibody was used to detect the FL fragments, as directed by the manufacturer (Sigma-Aldrich). β-actin protein was used as a loading control and detected by anti-β-actin antibody (Sigma-Aldrich). Immunoblots were developed using the Pierce ECL Kit, as directed by the manufacturer. Protein levels were determined by quantifying the band intensities on Western blot analysis using ImageJ's ROI manager.
as §3

c-Myc [6] = experiment: Western blot analysis of endogenous phospho c-Myc in 293T cells; assay type: cell-based, human
Protocol: as §5, with “Immunoblots were developed using the Pierce ECL Kit, as directed by the manufacturer.” left out
Drug Inhibition Assay: SKBR3 stable cells constitutively expressing the sensor system (SK ST) or the full-length FL (SK FST) were treated with PD98059 (Cell Signaling) for 2 h, U0126 (Cell Signaling) for 1 h, and purified AT (Sequoia Research Products) for 16 h at the indicated concentrations and imaged with D-Luc in the IVIS 50 BLI system (FIGS. 6A and 6B, and FIGS. 10A-12D). […] The correlation coefficient between the fold change of normalized FL activity and the fold change of normalized phospho c-Myc level (phospho c-Myc/β-actin) was determined based on the R^2 value.

[7] = system: SK ST and SK FST xenografts; experiment: BLI of SK ST and SK FST subcutaneous xenografts in nude mice under AT treatment; assay type: in vivo
Protocol: The mice underwent gavage with AT (20 μL, 1.25 mM; n=5) or with PBS (20 μL; n=5) every other day.
BLI of Living Mice: BLI of mouse xenografts was performed with the IVIS Spectrum optical imaging system (Xenogen) as described previously (Chan et al. (2008) Cancer Res. 68:216-226, incorporated herein by refrence in its entirety), with some modifications. At 4 h after transient transfection with the indicated constructs (FIG. 7A), 5×10^6 SKBR3 cells were implanted subcutaneously into the indicated locations of nude mice (nu/nu; n=3). At 16 h after cell implantation, a Clz PBS (0.3 μg/μL; 100 μL) solution was injected intravenously for RL imaging. Then, 8 h later, FL imaging was acquired with D-Luc PBS solution (45 μg/μL; 100 μL) via intraperitoneal injection. Subsequently, 5×10^6 each of SK ST and SK FST cells were implanted subcutaneously into nude mice (nu/nu; n=10) as indicated (FIG. 8A). FL imaging was performed 1 day after the implantation and every other day thereafter. After each FL imaging, half of the mice underwent gavage with AT PBS solution (1.25 mM; 20 μL), and the other half did so with PBS only (20 μL). After 23 d of treatment, the mice were killed, and xenograft tissue samples were collected for Western blot analysis of phospho c-Myc, c-Myc, and α-tubulin proteins.

[8] = system: NFL-c-MycS62A mutant sensor; experiment: BLI of SKBR3 cells transiently transfected with the S62A mutant sensor; assay type: cell-based, human; conditions: PD98059 1 h
Protocol: FIG. 14A is a digital image showing the NFL-c-Myc WT construct or the NFL-c-MycS62A mutant construct transiently transfected into SKBR3 cells with GSK 35-433-CFL construct and subjected to PD98059 of indicated concentration for 1 h, followed by BLI.
FIG. 14B is a graph showing FL activity normalized to co-transfected RL activity and the total protein content and plotted against the drug concentration.
These differential signal inhibitions also were correlated with the decreased endogenous c-Myc phosphorylation level, as shown in FIG. 6A.

c-Myc [9] = conditions: Hydbring et al. 2009; cited from earlier work
[10] = system: SK-ST subcutaneous tumor xenograft; experiment: SK-ST subcutaneous tumor xenograft mouse model under NTZ treatment; assay type: in vivo; conditions: NTZ vs CMC treated groups, up to 27 days after implantation
From the text: FIGS. 27A and 27B illustrate the efficacy of NTZ in a SK-ST subcutaneous tumor xenograft mouse model. FIG. 27A: SK-ST stable cells were subcutaneously implanted as indicated and treated with NTZ or CMC. Representative images of FL imaging at indicated days of treatment are shown. FIG. 27B: Photon output of SK-ST cells with NTZ or CMC treatment is plotted against days after implantation. * P<0.05. […] FIG. 28A: Representative photographs of removed tumors from CMC or NTZ treated mice 27 days after implantation. FIG. 28B: Plot of caliper measured tumor sizes of NTZ or CMC treated groups at different days after implantation. *P<0.05, **P<0.01. FIGS. 29A and 29B illustrate immunohistochemistry and western blot analysis of NTZ treated tumor samples. FIG. 29A: Representative images of H&E, Ki67 and caspase-3 IHC staining of tumor tissue samples from each group. FIG. 29B: Western blot analysis of tumor tissue samples using phospho c-Myc, c-Myc and α-tubulin antibodies.

c-Myc [11] = experiment: Phospho c-Myc level in lymphoma cells; assay type: cell-based; conditions: read-out: IC50, inhibition of phospho c-Myc level
Protocol: as §4

c-Myc [12] = experiment: Phospho c-Myc level in sarcoma cells; assay type: cell-based; conditions: read-out: IC50, inhibition of phospho c-Myc level
Protocol: as §4

Structure (SMILES): CC(C)c1c(C(=O)Nc2ccccc2)c(-c2ccccc2)c(-c2ccc(F)cc2)n1CC[C@@H](O)C[C@@H](O)CC(=O)O [AT, Atorvastatin]
- liver tumor size (c-Myc [1]; 29-day treatment, AT vs PBS, one mouse each): no significant difference
- endogenous c-Myc phosphorylation in liver tissue samples (c-Myc [1]; Western blot after 29-day treatment): reduced
- complemented FL activity in liver (c-Myc [1]; on addition of D-Luc, AT vs PBS treated mouse): much lower
- c-Myc-induced lymphomagenesis (c-Myc [2]): preventing
- phosphorylation of c-Myc (c-Myc [2]): reduce
- reduction in complemented FL activity compared between drugs (c-Myc [3]): greater reduction in complemented FL activity with lower drug concentrations than did U0126
- complemented FL activity (c-Myc [3]): dose-dependent reduction
- complemented FL activity (c-Myc [4]): dose-dependent increase
- endogenous c-Myc phosphorylation level (c-Myc [5]): decreased
- endogenous c-Myc phosphorylation level (c-Myc [6]): increase
- c-Myc phosphorylation levels in tumor tissue samples ([7]; 23 d after implantation, Western blot): decreased
- sensor signal (complemented FL activity of SK ST normalized to SK FST) ([7]; AT group): sustained decrease
- tumor size ([7]; AT vs PBS group): no detectable difference
- tumor growth ([7]; eventual effect of AT): reduced tumor growth
- complemented FL activity of SK ST xenografts ([7]; from 10 d after implantation, gavage AT 20 μL 1.25 mM every other day): increased only slightly
- FL activity of SK FST xenografts ([7]; up to about 18 d after implantation): higher in the PBS-treated group compared with the AT-treated group

Structure (SMILES): COc1cccc(-c2cc(=O)c3ccccc3o2)c1N [PD98059]
- complemented FL activity (c-Myc [3]): dose-dependent reduction
- endogenous c-Myc phosphorylation level (c-Myc [5]): decreased
- response of mutant sensor to phosphorylation inhibition of c-Myc [8]: did not respond
- c-Myc phosphorylation level in vitro (c-Myc [9]): decrease

Structure (SMILES): N#CC(=C(/N)Sc1ccccc1N)/C(C#N)=C(\N)Sc1ccccc1N [U0126]
- reduction in complemented FL activity compared between drugs (c-Myc [3]): greater reduction than PD98059
- complemented FL activity (c-Myc [3]): dose-dependent reduction
- endogenous c-Myc phosphorylation level (c-Myc [5]): decreased
- c-Myc phosphorylation level in vitro (c-Myc [9]): decrease

Structure (SMILES): CC(=O)Oc1ccccc1C(=O)Nc1ncc([N+](=O)[O-])s1 [NTZ, nitazoxanide]
- tumor growth (caliper measured tumor sizes) [10]: inhibition of tumor growth
- IC50 (c-Myc [11]): 440 nM
- luciferase activity when cells are exposed to nitazoxanide (c-Myc [3]; in vitro validation of the assay system): decrease in luciferase activity
- IC50 (c-Myc [5]; read-out: IC50, inhibition of phospho c-Myc level): 122 nM
- IC50 (c-Myc [12]): 12 nM
